Each block holds one molecule with its values, some of them ahead of it. Alexa488 = Alexa Fluor 488 fluorescent label
Columns and labels:
BACE [1] = molecular target: T1, BACE (Homo sapiens, UniProt P56817); assay: Competitive binding assay, displacement of labeled EBP from BACE, fluorescence anisotropy; set-up: The cDNA for the catalytic domain of human BACE (residues 1-460) was PCR-amplified; human IgG1 heavy chain (C, cleaved yes); thrombin cleavage site (C); made in house; host or cells: CHO DG44 cells (stably transfected, secreted)
Procedure: The competitive binding assay was carried out at pH 7.1 (PBS buffer) or pH 4.5 (50 mM acetate buffer). The fluorescence anisotropy was measured at 25° C. in an AVIV fluorometer. The excitation and emission wavelengths were set to 495 and 519 nm, respectively. The excitation and emission slit widths were 4 and 10 nm, respectively.
The initial anisotropy value was measured. A concentrated unlabeled peptide or compound stock was titrated into the above solution of EBP and BACE. The final concentration of unlabeled peptide or compound ranges from 20 to 20000 nM. After each addition, the solution was mixed for 10 times with a pipettor. The fluorescence anisotropy was averaged over a 5 minute period.
The change in anisotropy was converted to fractional occupancy based on the r0 and rb obtained from the binding assay. The fractional occupancy was then plotted against the concentration of the competing peptide or compound. (see, for example, FIG. 6) The Kd of the competing ligand was calculated from curve fitting using the program […]™ (Synergy Software, Reading, Pa.). The equation used to fit the competition data is identical to equation 4 in Lai et al., (2000) Arch. Biochem. Biophys. 381:278-284.
The truncated unlabeled peptides were screened at a single concentration of 10 μM at pH 4.5. The anisotropy values detected with Molecule X in the absence of inhibitor, i.e., truncated unlabeled peptide (ra) and in the presence of the inhibitor (rb) and the labeled peptide alone (r0) were used to calculate the percent of inhibition: 100 (ra-rb)/(ra-r0). The percent of inhibition was compared among the truncated peptides.

BACE [2] = molecular target: T1, BACE; assay: Phage ELISA of phage-displayed peptides on immobilised BACE; format: binding; set-up: The cDNA for the catalytic domain of human BACE (residues 1-460) was PCR-amplified; human IgG1 heavy chain (C, cleaved yes); thrombin cleavage site (C); made in house; host or cells: CHO DG44 cells (stably transfected, secreted); details: clones from solid phase panning at pH 7.0
Procedure: Two highly selected and homologous 12 mer phage peptides bound BACE specifically and reproducibly in phage-ELISA tests. Bristol-Myers Squibb fUSE5-based C4C, C6C, 5- and 15 mer libraries, and M13-based C7C libraries, and 7- and 12 mer libraries obtained from New England Biolabs, Beverly, Mass. were panned for three cycles against BACE (produced as described herein in Example 3). BACE was immobilized by coating at 0.5 μg/well in 4 wells of Dynex Immulon 4HBX plates overnight at 4° C. in 0.1M NaHCO3 buffer, pH 9.0. Panning was by standard procedures at room temperature that involved blocking wells with 2% BSA in PBS and elution with 0.1M HCL, pH 2.2. The vector NTI alignment tool and visual inspection of sequences were employed to analyze the selected peptides.
After sequencing approximately 20-50 clones from each library after three cycles of selection, we prepared essentially all possible candidate clones (39 clones in total) for phage-ELISA to obtain direct evidence for affinity to BACE. […] We therefore sequenced additional 12 mer clones to try to find additional candidate clones. […] This […] (SEQ ID NO:20) peptide is homologous to […] (SEQ ID NO:19) and consistent with the specific binding of both those peptides to BACE. The […] (SEQ ID NO:20) peptide and […] (SEQ ID NO:19) peptides were the two most efficiently recovered clones with 13 and 9 copies, respectively. […]

BACE [3] = molecular target: T1, BACE; assay: Isothermal titration calorimetry (ITC) of BACE and peptides; format: binding; set-up: The cDNA for the catalytic domain of human BACE (residues 1-460) was PCR-amplified; human IgG1 heavy chain (C, cleaved yes); thrombin cleavage site (C); made in house; host or cells: CHO DG44 cells (stably transfected, secreted); details: 25° C.
Procedure: Isothermal titration calorimetry was performed to determine quantitatively the binding affinities of BMS-561877 and BMS-561871 for β-secretase. Recombinant human BACE was expressed as a fusion protein with human IgG1, in Chinese hamster ovary (CHO) cells (Vassar et al., (1999) Science 286:735-741 and Haniu et al., (2000) J. Biol. Chem. 275:21099-21106).
This construct, referred to as BACE-T-IgG, also contained a protease cleavage site between BACE and IgG1, sensitive to human α-thrombin. The cDNA for the catalytic domain of human BACE (residues 1-460) was PCR-amplified and subcloned into the mammalian expression vector pTV1.6, upstream of a thrombin cleavage site linked to cDNA encoding human IgG1 heavy chain. The vector construct, pTV1.6-BACE-T-IgG, was used to produce stably transfected DHFR-deficient CHO DG44 cells, which were then scaled up using methotrexate for selection.
The clarified growth media harvested from CHO DG44 cells which contained the fusion protein was loaded onto a rProtein A SEPHAROSE™ column (5×20 cm, Amersham Pharmacia Biotech) using a peristaltic pump at 4° C., at 4 mL/min. The column was washed with Dulbecco's PBS, pH 7.1, 4 mL/min, until baseline absorbance at 280 nm was observed. BACE-T-IgG was eluted from the resin with 0.10 M citrate, pH 3.0, into tubes containing 0.5 volumes of 4 M Tris, pH 8. Fractions containing the fusion protein were dialyzed extensively using 12,000-14,000 […] MWCO membrane (UltraPURE, GIBCO BRL) against PBS, pH 7.1, at 4° C. The protein was sterile filtered (0.22 μm) and stored at 4° C.
To generate BACE for binding experiments, the fusion protein BACE-T-IgG was treated with human α-thrombin (Enzyme Research Labs, South Bend, Ind.) at a ratio of 1:500 (mass:mass) in Dulbecco's PBS, pH 7.1, at 37° C. for 2 hr. Human α-thrombin was removed by passing the sample over Benzamidine SEPHAROSE™ 6B column (Amersham Pharmacia Biotech). The cleaved IgG1 was captured by passing the solution over a rProtein A SEPHAROSE™ (Amersham Pharmacia Biotech) column, whereas the BACE passed through this column. The protein sample was further purified by concentrating to 10-15 mg/mL using a centrifugation concentration unit (Millipore Ultrafree 10 kDa MWCO, 15 mL unit) and loading onto a SUPERDEX™ 200 PC 3.2/30 gel-filtration column (Amersham Pharmacia Biotech). The column was run at 3 mL/min with Dulbecco's PBS, pH 7.1, at room temperature. Fractions containing BACE were combined, sterile filtered (0.22 μm) and stored at 4° C.
BACE was prepared for isothermal titrating calorimetry by extensive dialysis against fresh buffer at 4° C. using 12,000-14,000 […] MWCO dialysis membrane (UltraPURE, GIBCO BRL). […] Following 2 buffer changes, the protein was removed from the membrane and centrifuged (5 min×4000 g, 4° C.) to remove particulates. The protein was stored at 4° C. until needed for the calorimetry experiments. The protein concentration was determined by 10-fold dilution into the same buffer, and measuring the UV absorbance at 280 nm in a 1.00 cm pathlength cell (calculated value=1.22 AU=1.00 mg/mL protein, based on mean glycosylated molecular weight=53.5 kDa, and given amino acid composition). Final concentrations used in isothermal titrating calorimetry were typically 5.0 μM, containing a final concentration of 0.5% v/v DMSO.
Peptides were dissolved in the buffer dialysate from protein dialysis, and equal volumes of DMSO were added to each (0.5% v/v DMSO). The pH values of the solutions were adjusted as necessary to equal that of the buffer dialysate and protein sample within 0.01 pH units.

[4] = molecular target: T2, catalytic domain of human BACE expressed in a CHO cell line (Homo sapiens, UniProt P56817); assay: Fluorescently labeled EBP binding to BACE, fluorescence anisotropy; details: pH 4.5 (50 mM acetate), 25° C., 1:1 binding model; read-out: binding constant (Kd) of labeled EBP
T2 construct: The cDNA for the catalytic domain of human BACE (residues 1-460) was PCR-amplified; human IgG1 heavy chain (C, cleaved yes); thrombin cleavage site (C); made in house; host or cells: CHO DG44 cells (stably transfected, secreted)
Procedure: An assay to evaluate the binding of BACE to EBPs labeled with a fluorescent molecule (for example, but not limited to Alexa488) was developed. This assay uses the catalytic domain of human BACE expressed in a CHO cell line (according to Example 3) and labeled EBPs such as Molecule X shown in FIG. 4. The change in fluorescent anisotropy of the EBP peptide upon binding to BACE is monitored.
Peptides were dissolved in 100% DMSO (dimethyl sulfoxide) at 10 mM concentration, and then diluted 10-fold into deionized water. The concentration of the labeled peptides was determined by their absorbance at 495 nm (ε=71000 cm^−1M^−1). The concentration of selected unlabeled peptides was determined by their Tyr absorbance at 276 nm (ε=1390 cm^−1M^−1 per Tyr residue).
The binding was carried out at pH 7.1 (PBS buffer) and pH 4.5 (50 mM acetate buffer) in the presence of 1% DMSO. Fluorescence anisotropy was measured at 25° C. in an AVIV fluorometer. The excitation and emission wavelengths were set to 495 and 519 nm, respectively. The excitation and emission slit width were 4 and 10 nm, respectively. A concentrated BACE stock was used to titrate a 300 μl solution of 10 nM labeled EBP. The final BACE concentration ranges from 10 to 5000 nM. After the addition of BACE, the solution was mixed for 10 times with a pipettor. The fluorescence anisotropy was averaged over a 5 minute period.
The change in anisotropy was plotted against the BACE concentration (see, for example, FIG. 5). The Kd of the labeled EBP as well as the initial (r0) and final anisotropy (rb) of the labeled EBP were calculated from curve fitting using the program Kaleidagraph. The equation used to fit the binding data is identical to equation 1 in Lai et al., (2000) Arch. Biochem. Biophys. 381:278-284.

T1 sequence (P56817 46-460 limits assumed): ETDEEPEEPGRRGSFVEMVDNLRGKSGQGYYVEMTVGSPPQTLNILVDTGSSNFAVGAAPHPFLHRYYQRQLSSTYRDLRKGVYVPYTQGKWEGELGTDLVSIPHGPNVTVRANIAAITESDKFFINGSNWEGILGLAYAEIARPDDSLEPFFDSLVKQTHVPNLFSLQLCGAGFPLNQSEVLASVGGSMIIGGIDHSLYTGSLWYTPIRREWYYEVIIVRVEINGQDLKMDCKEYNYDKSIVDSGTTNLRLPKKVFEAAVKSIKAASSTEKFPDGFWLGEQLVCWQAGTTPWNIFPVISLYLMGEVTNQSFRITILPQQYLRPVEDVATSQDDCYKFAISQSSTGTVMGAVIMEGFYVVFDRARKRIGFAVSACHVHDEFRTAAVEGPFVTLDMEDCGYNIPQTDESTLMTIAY
T2 sequence (P56817 46-460 limits assumed): as above

Kd (BACE [1]; pH 4.5, displacement of Molecule Y1, read-out: Kd of unlabeled EBP by competition): 1200 nM
Molecule: CC[C@H](C)[C@H](NC(=O)[C@H](Cc1ccccc1)NC(=O)[C@H](Cc1ccc(O)cc1)NC(=O)[C@@H]1CCCN1C(=O)[C@H](Cc1ccc(O)cc1)NC(C)=O)C(=O)N1CCC[C@H]1C(=O)N[C@@H](CC(C)C)C(N)=O [BMS-593925, Tyr-Pro-Tyr-Phe-Ile-Pro-Leu]

phage ELISA binding to BACE (BACE [2]): specific binding to BACE
Molecule: Ac-ALYPYFLPISAK-NH2 [BMS-561877]

KA (BACE [3]; 50 mM NaOAc, pH 4.5): 610000 M⁻¹
Kd (BACE [3]; 50 mM NaOAc, pH 4.5): 1640 nM
TΔS (BACE [3]; 50 mM NaOAc, pH 4.5): -5.46 kcal/mol
ΔG (BACE [3]; 50 mM NaOAc, pH 4.5): -7.90 kcal/mol
ΔH (BACE [3]; 50 mM NaOAc, pH 4.5): -13.35 kcal/mol
KA (BACE [3]; Dulbecco's PBS, pH 7.0): 1.09e+06 M⁻¹
Kd (BACE [3]; Dulbecco's PBS, pH 7.0): 914 nM
TΔS (BACE [3]; Dulbecco's PBS, pH 7.0): -9.81 kcal/mol
ΔG (BACE [3]; Dulbecco's PBS, pH 7.0): -8.23 kcal/mol
ΔH (BACE [3]; Dulbecco's PBS, pH 7.0): -18.04 kcal/mol
Molecule: Ac-HWPFFIRS-NH2 [BMS-655507]

binding to BACE (BACE [1]; scrambled peptide): does not bind to BACE
Molecule: LYPPYIF (Ac-LYPPYIF-NH2) [BMS-599271, scrambled peptide containing the same amino acids as BMS-593925]

Kd [4]: 92 nM
Molecule: Molecule Y2: analog of Molecule Y1 with different length of linker between Alexa488 and the peptide (Ac-YPYFIPL-Alexa488; also: linker between peptide and Alexa488 not given here)

Kd [4]: 62 nM
Molecule: Molecule Y4: analog of Molecule Y1 with different length of linker between Alexa488 and the peptide (Ac-YPYFIPL-Alexa488; also: linker between peptide and Alexa488 not given here)
